Entries after “also recorded” stand apart in the source; their conditions may differ. One block for each compound: values may come before it.
Assays:
[1] = Colon pharmacokinetics in rats; type: in vivo, Sprague Dawley rats; conditions: rat, oral administration (summary statement)
Experimental: The test compound was formulated in 0.5% methyl-cellulose in water and dosed via oral gavage at 3.2 mg/kg and 100 mg/kg to Sprague Dawley rats. At various time points (typically 0.5, 1, 3, 6, 24 hr) post dosing, blood samples were removed via cardiac puncture and intact colons were excised from the rats. Blood samples were centrifuged at 1500×g for 15 min to collect plasma. Colons were washed with ice cold phosphate buffered saline (PBS), weighed, and homogenized at a dilution of 1:10 in PBS. Plasma and colon levels of test compound were determined by LC-MS analysis against analytical standards constructed into a standard curve in the test matrix. A colon to plasma ratio was determined as the ratio of the colon AUC to the plasma AUC in μg hr/g.

[2] = system: oxazolone-induced colitis; assay: Mouse model of oxazolone-induced colitis; type: in vivo, BALB/C mice; conditions: mice (summary statement)
Experimental: Oxazolone-induced colitis is an experimental model that has a histological resemblance to human ulcerative colitis (Heller et al. […], 2002, 17, 629-638). Adult BALB/C mice from Harlan were used in the assay. On day 1, animals were lightly anesthetized with isoflurane and the hairs between the shoulder were carefully removed before oxazolone (4%, 150 μL, 4:1 acetone: olive oil formulation) or vehicle solution was slowly applied for skin sensitization. Seven days after skin sensitization, the mice were fasted overnight, anesthetized with isoflurane inhalation, and a 1 mL syringe equipped with a 3.5-F catheter, filled with oxazolone solution, was inserted carefully about 4 cm into the colon of the mouse. Following insertion, 50 μL of the oxazolone solution (1%, 1:1 ethanol:water formulation) was injected very slowly (over 30 sec using an injection pump) into the colon. […] Two-day post oxazolone intrarectal challenge, the Disease Activity Index (DAI) was assessed by treatment-blinded experimenters for each mouse according to the criteria score: stool consistency score (0, normal; 2, loose; 4, diarrhea), gross bleeding score (0, absence; 2, blood tinged; 4, presence), and weight loss score (0, none; 1, 1%-5%; 2, 5%-10%; 3, 10%-20%; 4, more than 20%); DAI=average of (stool consistency score+gross bleeding score+weight loss score). […]

[3] = system: splenic NK, B and T cells; conditions: mouse, in vivo; for B and T cell populations (spleen): po
Experimental: Depletion of mouse splenic cells is an experimental model of immunosuppression (Kudlacz et al., Am. J. of Transplantation, 2004, 4, 51-57). The compound of Example 2 was assessed in the mouse splenic cell model following the same treatment paradigm as that used in the oxazolone-induced colitis model (Assay 8).
The compound (1, 10 and 100 mg/kg, BID) and tofacitinib (30 and 60 mg/kg, BID) as a positive control were dosed orally for three days to naïve mice. Spleens were harvested 1 h post last dose and crushed immediately for cell subtype staining. Prior to fixation, fluorophore-labelled antibodies for CD19 (FITC; B cells), CD3e (PE; pan T cells) and DX5 (APC; NK cells) were incubated with splenocyte samples from each animal to allow for simultaneous, multiple subtype % analysis on the flow cytometer. The number of total spleen cells for each animal was measured by Scepter™ 2.0 Handheld Automated Cell Counter.
The absolute number of lymphocyte subtype population (e.g., splenic B, T and NK cells) was calculated from the percentage of each subtype times total spleen cells for each animal. A one way ANOVA, with Dunnett's post hoc test, was used to compare the splenic lymphocytes number of the vehicle and test compound groups. The a level was set at p<0.05. Data were presented as the mean±SEM for each group.

[4] = system: TPA-induced increase in ear thickness; assay: Topical TPA-induced irritant contact dermatitis model in mice; type: in vivo, Balb/c mice; conditions: mouse, topical 30-3000 μg per ear, 6 hours after TPA
Experimental: The objective of this assay is to assess the anti-inflammatory effect in a model of acute dermatitis of test compounds being studied for cutaneous inflammatory conditions such as atopic dermatitis (Dong et al., J Pharmacol Exp Ther, 2013, 344, 436-446).
Topical dermal application of phorbol ester 12-O-tetradecanoylphorbol-13-acetate (TPA) in mice causes an inflammatory response that is characterized by edema and neutrophil influx at the early phase (2-24 h) and by epidermal cell proliferation at the later phase (24-48 h) (Griffiths et al., Agents and Actions, 1988, 25, 344-351). Female Balb/c mice were topically administered with either vehicle (1:7 DMSO:acetone) or 20 μL of a solution of TPA (2.5 μg) in vehicle on each ear. At 30 min before and 15 min after TPA administration, either vehicle or the compound of Example 2 at doses of 30, 100, 300, 1000, and 3000 μg in vehicle was applied topically to each ear. The degree of inflammation was assessed as the change in ear thickness at 6 hours after TPA application.

JAK3 = JAK3 (Homo sapiens (Human), UniProt P52333); assay: LanthaScreen JAK biochemical assay, JAK3
JAK3, sequence (P52333 whole entry): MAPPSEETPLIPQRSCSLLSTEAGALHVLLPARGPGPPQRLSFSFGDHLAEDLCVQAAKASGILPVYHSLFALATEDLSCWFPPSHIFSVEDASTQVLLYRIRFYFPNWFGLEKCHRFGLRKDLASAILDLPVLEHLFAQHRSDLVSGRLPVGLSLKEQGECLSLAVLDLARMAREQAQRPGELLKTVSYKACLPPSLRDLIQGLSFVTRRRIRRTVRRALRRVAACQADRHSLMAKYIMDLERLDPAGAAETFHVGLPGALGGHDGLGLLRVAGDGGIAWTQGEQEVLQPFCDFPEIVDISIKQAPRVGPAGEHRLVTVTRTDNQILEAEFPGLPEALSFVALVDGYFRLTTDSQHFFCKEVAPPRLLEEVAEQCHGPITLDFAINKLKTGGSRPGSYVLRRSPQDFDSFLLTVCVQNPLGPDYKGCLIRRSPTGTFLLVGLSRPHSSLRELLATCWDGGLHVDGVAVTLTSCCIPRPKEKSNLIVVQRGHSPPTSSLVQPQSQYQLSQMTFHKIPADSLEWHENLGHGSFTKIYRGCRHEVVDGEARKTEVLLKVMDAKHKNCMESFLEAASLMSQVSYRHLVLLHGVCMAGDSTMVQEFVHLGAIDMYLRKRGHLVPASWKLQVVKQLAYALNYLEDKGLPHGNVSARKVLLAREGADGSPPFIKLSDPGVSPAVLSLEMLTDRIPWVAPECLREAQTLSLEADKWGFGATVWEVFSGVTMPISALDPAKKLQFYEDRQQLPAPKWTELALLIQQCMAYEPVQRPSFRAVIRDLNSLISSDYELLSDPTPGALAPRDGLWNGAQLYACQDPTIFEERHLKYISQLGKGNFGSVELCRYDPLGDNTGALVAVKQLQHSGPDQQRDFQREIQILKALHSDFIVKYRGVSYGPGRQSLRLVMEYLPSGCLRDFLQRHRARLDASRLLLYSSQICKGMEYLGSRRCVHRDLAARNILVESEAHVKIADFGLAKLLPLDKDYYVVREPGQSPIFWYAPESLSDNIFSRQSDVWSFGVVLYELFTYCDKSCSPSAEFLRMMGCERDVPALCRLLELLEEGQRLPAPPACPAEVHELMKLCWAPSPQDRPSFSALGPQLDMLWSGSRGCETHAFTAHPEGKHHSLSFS
Experimental: A panel of four LanthaScreen JAK biochemical assays (JAK1, 2, 3 and Tyk2) were carried in a common kinase reaction buffer (50 mM HEPES, pH 7.5, 0.01% Brij-35, 10 mM MgCl2, and 1 mM EGTA). Recombinant GST-tagged JAK enzymes and a GFP-tagged STAT1 peptide substrate were obtained from Life Technologies.
Serially diluted compounds were pre-incubated with each of the four JAK enzymes and the substrate in white 384-well microplates (Corning) at ambient temperature for 1h. ATP was subsequently added to initiate the kinase reactions in 10 μL total volume, with 1% DMSO. […] The plates were allowed to incubate at ambient temperature for 1h before being read on the EnVision reader (Perkin Elmer).
For dose-response analysis, percent inhibition data were plotted vs. compound concentrations, and IC50 values were determined from a 4-parameter robust fit model with the Prism software (GraphPad Software). Results were expressed as pIC50 (negative logarithm of IC50) and subsequently converted to pKi (negative logarithm of dissociation constant, Ki) using the Cheng-Prusoff equation.

[5] = Dynamic moisture sorption assessment; type: physicochemical; conditions: 5% to 90% relative humidity; for weight gain: 25° C.
Experimental: Dynamic moisture sorption (DMS) measurement was performed using a VTI atmospheric microbalance, SGA-100 system (VTI Corp., Hialeah, Fla. 33016). A weighed sample was used and the humidity was lowest possible value (close to 0% RH) at the start of the analysis. The DMS analysis consisted of an initial drying step (0% RH) for 120 minutes, followed by two cycles of sorption and desorption with a scan rate of 5% RH/step over the humidity range of 5% RH to 90% RH. The DMS run was performed isothermally at 25° C.

Structure (SMILES): COc1cc(Nc2cc(CO)[nH]n2)nc(N(C)[C@@H]2C[C@H]3CCC[C@@H](C2)N3S(=O)(=O)N2CC(C#N)C2)n1 [Example 2, 1-(((1R,3s,5S)-3-((4-((5-(Hydroxymethyl)-1H-pyrazol-3-yl)amino)-6-methoxypyrimidin-2-yl)(methyl)amino)-9-azabicyclo[3.3.1]nonan-9-yl)sulfonyl)azetidine-3-carbonitrile]
ratio of exposure in the colon to exposure in plasma [1]: greater than 250
activity in the oxazolone-induced colitis model [2]: demonstrated activity
effect of immunosuppression [3]: minimal effect of immunosuppression
B and T cell populations (spleen) [3]: No treatment effect
inhibition of TPA-induced increase in ear thickness [4]: dose- and concentration-dependent effect; also recorded: dose- and concentration-dependent inhibition

Structure (SMILES): COc1cc(Nc2cc(CO)[nH]n2)nc(N(C)[C@@H]2C[C@H]3CCC[C@@H](C2)N3C(=O)C(F)F)n1 [Example 9, 2,2-difluoro-1-((1R,3s,5S)-3-((4-((5-(hydroxymethyl)-1H-pyrazol-3-yl)amino)-6-methoxypyrimidin-2-yl)(methyl)amino)-9-azabicyclo[3.3.1]nonan-9-yl)ethan-1-one]
JAK 3 (pKi) (JAK3): D (D represents a pKi value between 7.5 and 8 (Ki between 31.6 nM and 10 nM))

Structure (SMILES): COc1cc(Nc2cc(CO)[nH]n2)nc(N(C)[C@@H]2C[C@H]3CCC[C@@H](C2)N3S(=O)(=O)N2CC(C#N)C2)n1 [Form I, 1-(((1R,3s,5S)-3-((4-((5-(hydroxymethyl)-1H-pyrazol-3-yl)amino)-6-methoxypyrimidin-2-yl)(methyl)amino)-9-azabicyclo[3.3.1]nonan-9-yl)sulfonyl)azetidine-3-carbonitrile]
hygroscopicity [5]: non-hygroscopic
weight gain [5]: less than 0.4%
weight gain ([5]; listed as Crystalline 1-((1R,3s,5S)-3-((4-((5-(hydroxymethyl)-1H-pyrazol-3-yl)amino)-6-me)))): less than 0.4%

Structure (SMILES): COc1cc(Nc2cc(CO)[nH]n2)nc(N(C)[C@@H]2C[C@H]3CCC[C@@H](C2)N3S(=O)(=O)N2CC(C#N)C2)n1 [Form II, 1-(((1R,3s,5S)-3-((4-((5-(hydroxymethyl)-1H-pyrazol-3-yl)amino)-6-methoxypyrimidin-2-yl)(methyl)amino)-9-azabicyclo[3.3.1]nonan-9-yl)sulfonyl)azetidine-3-carbonitrile]
weight gain [5]: about 1.2%

B and T cell populations (spleen) [3]: No treatment effect
Structure (SMILES): C[C@@H]1CCN(C(=O)CC#N)C[C@@H]1N(C)c1ncnc2[nH]ccc12 [tofacitinib, reference compound]

Source: patent US11110095B2, “Pyrimidine compounds as JAK kinase inhibitors” (THERAVANCE BIOPHARMA R&D IP, LLC, priority 2016, dated 2021)
